Test results as given in PMC11999743 (Journal of Analytical Methods in Chemistry, 2025).
Structures can show the parent of a compound that is named as a salt.

Experiment: Pharmacokinetic study in naive mice after intraperitoneal injection
Details: 3 mg/kg; for V_F: uncorrected for bioavailability
Experimental: Nine-week-old male Swiss mice (Janvier Labs, Le Genest-Saint-Isle, France), weighing 35–45 g at the time of experimentation, were used. […] Food and tap water were given ad libitum.
Their hind legs were depilated after a 1 min application of a commercial depilatory cream and rinsed with water. Subsequently, the mice were returned to their cages to allow for recovery and complete anesthesia washout. On the day of the experiment, an initial blood sample (20–30 μL) was collected by perforation of the saphenous vein from the mice.
For each treatment group, mice were subdivided into two cohorts, with blood samples collected at distinct time intervals after injection, totaling 14 time points for pharmacokinetic modeling. Compliance with regulatory directives prevented the collection of more than eight blood samples from individual animals. […] Blood samples were acquired using heparinized capillaries containing 2 μL of sodium heparin (Panpharma, France). After collection, the samples were transferred to Eppendorf tubes and centrifuged at 3000 g and 4°C for 10 min. The recovered plasma was then stored at −80°C until analysis. At the end of the experiments, the mice were euthanized by i.p. lethal injection (150 mg/kg) of sodium pentobarbital (Doléthal, Vétoquinol SA, France).
Pharmacokinetic analysis was carried out from the average concentration values at each time point using the Phoenix WinNonLin Version 8.4 software (Certara, Princeton NJ, USA). Pharmacokinetic parameters were determined from the plasma concentration-time data using a compartmental approach and include the total area under the plasma concentration-time curve (AUC0-∞), elimination half-life (t1/2elim), total clearance (CL/F), and volume of distribution (V). CL and V were uncorrected for the bioavailability (F).

[1] = male, Swiss, mouse, in vivo, ip

Row | SMILES | AUC [1] | CL/F [1] | Cmax [1] | Tmax (male, Swiss, mouse, in vivo, ip, T max, naive mice, plasma) | half-life (male, Swiss, mouse, in vivo, ip, t 1/2elim, naive mice, plasma) | T max (naive mice, i.p., plasma) | t 1/2elim (naive mice, i.p., plasma) | V_F (naive mice, i.p.) | Time after which plasma concentrations were below the LLOQ (naive mice, i.p., LLOQ 0.5 ng/mL tiotropium, 1 ng/mL atropine)
1 | C[N+]1(C)[C@@H]2C[C@@H](OC(=O)C(O)(c3cccs3)c3cccs3)C[C@H]1[C@@H]1O[C@@H]12 [Tiotropium, Tiotropium bromide monohydrate] | 0.199 µg·h/mL | 12.1 ± 0.3 L/h/kg | 0.705 ± 0.022 µg/mL | 4.9 min | ~7.5 min | 4.89 ± 0.24 min | 7.43 ± 0.12 min | 2.158 ± 0.075 L/kg | 60 min
2 | CN1[C@@H]2CC[C@H]1C[C@@H](OC(=O)C(CO)c1ccccc1)C2 (stereo partly shown) [Atropine, Atropine sulfate monohydrate] |  |  |  |  |  |  |  | 5.204 ± 0.43 L/kg | 
